Holding throughout (assay type): biochemical, human
In test [1] the test system is normal plasma pool (NPP). Put plainly: PiCT Method 1 (standard Pefakit PiCT) clotting time on ACL TOP 500. The conditions noted are these: for Clotting time with PiCT ® Method 1: spiked plasma. From the text: As described by Korte et al. (supra) or in EP 1240528, Pefakit® PiCT® is a functional clotting assay based on the direct activation of the prothrombinase complex which results in a fine-tuned analytical output directly proportional to the final anticoagulant activity of the factor Xa or factor IIa inhibitors (see Calatzis, Haemostasis 2000, 30:172-174). To perform the Pefakit® PiCT® test (referred to herein as standard “PiCT® or PiCT® Method 1), a defined amount of PiCT® activator (=reagent 1) is added to a sample, such as, e.g., plasma. The mixture is allowed to proceed at 37° C. for a specific period of time. The Start reagent (=reagent 2) is then added to the mixture and the time required for clot formation is measured. The presence of anticoagulants in the samples dose-dependently prolongs the time to clot. Pefakit® PiCT® is adapted to laboratory instruments based on mechanical or optical detection systems, including but not limited to ACL TOP® family (Instrumentation Laboratory), preferably ACL TOP® 500, STA Compact® series (Stago) or the BCS® XP series (Siemens).
The 4 methods (see above) are in more detail described in the Examples. Specific pipetting schemes were designed using NPP spiked with incremental amounts of anticoagulants in order to achieve high reproducibility of the test system, which is required for drug identification including use in a POC system. With regards to the ACL TOP® 500 analyzer, PiCT® Method 1 to 4 has been established as follows: • PiCT® Method 1: 50 μl of plasma is incubated for 180 sec with 50 μl of reagent 1 and afterwards 50 μl of reagent 2 is added and the time to clot is recorded on the ACL TOP® 500 (i.e. pipetting scheme: P-50/A-50/I-180/50-S). This method is in particularly useful for detection of UFH, LMWH or hirudin. • PiCT® Method 2: P-75/A-65/I-180/35-S on the ACL TOP® 500 or P-80/A-65/I-180/40-S on the STA Compact® or P-75/A-65/I-180/S-40 on the BCS® XP. This method is in particularly useful for fondaparinux. • PiCT® Method 3: P-90/A-70/I-180/40-S on the ACL TOP® 500 or STA Compact®, or P-70/A-60/I-180/45-S on the BCS® XP. This method is in particularly useful for dabigatran or argatroban. • PiCT® Method 4: P-140/S-45/I160/A-40 on the ACL TOP® 500 or STA Compact®, or P-125/S-45/I-150/A-40 on the BCS® XP. This method is in particularly useful for rivaroxaban or apixaban.
With the normal PiCT®, i.e. PiCT® Method 1, wherein 50 μl of plasma is mixed with the same amount of reagent 1 (PiCT® activator), incubated for 180 sec and mixed with the same amount of reagent 2 (PiCT® start reagent) in a ACL TOP® 500 analyzer, the presence of NOACs cannot be determined in a sample. This is true even at high levels of said drugs in the sample, i.e. in the range of 300 ng/ml. Thus, in order to determine which NOAC is present in the sample, a combination of PiCT® Method 1 and PiCT® method 4 has to be used (see above for detailed description). To confirm this, spiked plasma samples with different levels of NOACs were prepared and the clotting time measured using first PiCT® Method 1 followed by PiCT® Method 4. […] In case of dabigatran present in the sample, both PiCT® Method 1 (which had to be adapted, i.e. PiCT® Method 3) and 4 are out of range as indicated in bold.

Test [2] deals with normal plasma pool (NPP). Briefly: PiCT Method 3 clotting time on ACL TOP 500. To be noted: Table 8B (argatroban), PiCT Method 3, NPP spiked, mean n = 4. From the text: The 4 methods (see above) are in more detail described in the Examples. Specific pipetting schemes were designed using NPP spiked with incremental amounts of anticoagulants in order to achieve high reproducibility of the test system, which is required for drug identification including use in a POC system. […] […]-50/I-180/50-S). […] […]-65/I-180/35-S on the ACL TOP® 500 or […]-65/I-180/40-S on the STA Compact® or […]-65/[…]-40 on the BCS® XP. […] […]-70/I-180/40-S on the ACL TOP® 500 or STA Compact®, or […]-60/I-180/45-S on the BCS® XP.

For test [3], the system named is plasma samples. Put plainly: PiCT Method 1 with polybrene added, clotting time. To be noted: Table 6, spiked plasma, mean. From the text:
By the addition of polybrene a distinction can be done, which of the anticoagulants is really present in the sample: if after addition of polybrene the measured clotting times are again back to RR when using the PiCT® Method 1, the sample comprises heparins, such as e.g. UFH or LMWH. Alternatively, if the result is not going back to RR, the sample comprises low concentrations of dabigatran or hirudin. […] The particular clotting times measured for the different anticoagulants are shown in Table 6, which is an example of results obtained in spiked plasma samples.
In order to address the above question, i.e. to determine the nature of an anticoagulant in a sample, a combination of several methods has to be performed, including PiCT® Method 1, PiCT® Method 4, aPTT (HemosIL™ aPTT SP), PT (HemosIL™ PT recombiplastin), and sometimes even a modified PiCT® Method 1 wherein polybrene has been added. In order to simulate this, plasma samples spiked with different levels of anticoagulants were analyzed using the ACL TOP® 500 analyzer. For each drug, a specific pattern was obtained, i.e. clotting times within the RR and clotting times above the RR, depending on the used testing method, which is unique at least for the class of anticoagulant or even for a specific anticoagulant.

On to `O=C(NC[C@H]1CN(c2ccc(N3CCOCC3=O)cc2)C(=O)O1)c1ccc(Cl)s1` [rivaroxaban], for which the “Clotting time with PiCT ® Method 1” value in test [1] (Table 5, 20 ng per ml (title: Method 3 for dabigatran)) amounted to 17 s; in test [1] (Table 5, 35 ng per ml (title: Method 3 for dabigatran)) it was 18 s; in test [1] (Table 5, 300 ng per ml (title: Method 3 for dabigatran)) it was 29.3 s; in test [1] (Table 6, 50 ng, mean) it was 19.0 s; in test [1] (Table 6, 200 ng, mean), 25.5 s. Moreover, the “Clotting time with standard PiCT (Method 1) relative to reference range (RR)” value in test [1] (concentrations in the range of about 300 ng/ml in the sample) is given as “in the RR”.

For the compound `CC1CNc2c(cccc2S(=O)(=O)N[C@@H](CCCNC(=N)N)C(=O)N2CC[C@@H](C)C[C@@H]2C(=O)O)C1` (some centres unmarked) [argatroban], the “Clotting time with PiCT ® Method 1” value was 98.5 s in test [1] (Table 6, 0.3 μg, mean) and 150.3 s in test [1] (Table 6, 1.5 μg, mean). Further, the Clotting time in test [2] (0.2 μg/ml) was 113 s; in test [2] (0.4 μg/ml), 145 s; in test [2] (0.6 μg/ml), 162 s; in test [2] (0.8 μg/ml) it was 179 s; in test [2] (1.0 μg/ml), 198 s; in test [2] (1.2 μg/ml), 204 s. Also, the Clotting time worked out at 210 s in test [2] (1.4 μg/ml), 232 s in test [2] (1.6 μg/ml), 234 s in test [2] (1.8 μg/ml) and 240 s in test [2] (2.0 μg/ml). Moreover, the entries for the “Clotting time with PiCT ® Method 1 + polybrene” value in test [3] (0.3 μg) and in test [3] (1.5 μg) were 85.6 s and 126.4 s, respectively.

For the origin of these results see US11846640B2, “Identification of anticoagulants in a sample” (DSM IP Assets B.V., priority 2013, dated 2023).
